Measurements from the supplement of paper PMC11208160.

Test: recombinant barcode read abundance after kanamycin selection (control-corrected) (log10(CPM+1)); higher = more efficient recombination; sequences stand for … in AGTGCAGAGAAAATCGGCCAGTTTTCTCTGCCTGCAGTCCGCATGCCGT…AGATTTATGCAGCGGACTGCCTTTCTCCCAAAGTGATAAACCGGACAGTATCATGGACCGGTTTTCCCGGTAATCCGTATTTGCAAGGTTGGTTTCACT; site = the 11-nt target
Summary of the method: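 A vector carrying a T7-inducible recombinase and the last 73 bp of the bridge RNA received, by Gibson cloning, oligos encoding a promoter, target, barcode and the first 104 bridge RNA bases under J23119. The pooled constructs entered E. coli together with a donor plasmid by electroporation. Selection used chloramphenicol/ampicillin/kanamycin with 0.1 mM IPTG, with chloramphenicol/ampicillin LB agar as the control, each in two replicates. Recombination efficiency is the averaged, control-corrected counts-per-million of barcodes at recombinant junctions, reported as log10(CPM+1).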
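Note: IS621 recombinase and bridge RNA in Escherichia coli cells.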

Sequence | recombinant barcode read abundance (log10)
ACATCAACTTGGGTTCTAACCTGTTGCCT (site ACCTCAACTAG) | 0.0149
AGTTGTCCTTGGGTTCTAACCTGTTGCGT (site AGTTGTCCTAA) | 0.121
CACTGTTCTTGGGTTCTAACCTGTTGCCT (site CACTGGTCTAG) | 0.069
GTCTCTACTTGGGTTCTAACCTGTTGCCG (site GTCTCTACTCG) | 0.0442
TCTAGAGCTTGGGTTCTAACCTGTTGCGG (site CCTCGAGCTCC) | 0.176
ATCACGTCTTGGGTTCTAACCTGTTGCCT (site CAGCATCCTCT) | 0.0385
TCCGTTACTTGGGTTCTAACCTGTTGCCG (site TCCGTTACTCG) | 0.336
GAGCCACCTTGGGTTCTAACCTGTTGCTG (site GAGCCACCTCA) | 1.58
ATTACTACTTGGGTTCTAACCTGTTGCCT (site ATTACTACTAG) | 0.411
CGCCTTCCTTGGGTTCTAACCTGTTGCAT (site CGCCGTCCTAT) | 0.0857
TAGGCGTCTTGGGTTCTAACCTGTTGCAG (site TAGCCTTCTCT) | 0.0835
AGTGCTCCTTGGGTTCTAACCTGTTGCGG (site AGAGCTCCTCC) | 0.196
AGCTAATCTTGGGTTCTAACCTGTTGCTT (site AGCTAATCTAA) | 0.0369
CACTTGGCTTGGGTTCTAACCTGTTGCCT (site CACTTGGCTAG) | 0.134
ATAGTTACTTGGGTTCTAACCTGTTGCCT (site ATGATTACTAG) | 0.129
GACTATCCTTGGGTTCTAACCTGTTGCCG (site ACTATGACTAA) | 0.0127
TCCCCGGCTTGGGTTCTAACCTGTTGCGG (site TCCCCGGCTCC) | 1.48
CTATTGTCTTGGGTTCTAACCTGTTGCGT (site CTATTGTCTGC) | 0.475
ACTTAGACTTGGGTTCTAACCTGTTGCCT (site ACTTAGACTCG) | 0.313
CGGTCATCTTGGGTTCTAACCTGTTGCCT (site CGTTCATCTAG) | 0.417
TAGAAGCCTTGGGTTCTAACCTGTTGCCT (site TAGAAGCCTAG) | 1.11
CTACTAGCTTGGGTTCTAACCTGTTGCAG (site CTACTAGCTAT) | 0.173

Sequence | recombinant barcode read abundance (log10)
TGAAGGTCTTGGGTTCTAACCTGTTGCCT (site TGAAGGTCTAG) | 0.485
CGGGGTCCTTGGGTTCTAACCTGTTGCTA (site CGGTGTCCTTA) | 0.35
GCCGTAGCTTGGGTTCTAACCTGTTGCCT (site GTCGTAGCTAG) | 0.00812
CCGTCTACTTGGGTTCTAACCTGTTGCTC (site CCGTCTACTTA) | 0.0131
GGGCAGCCTTGGGTTCTAACCTGTTGCCT (site GGGCAGCCTAG) | 0.458
CGGATAGCTTGGGTTCTAACCTGTTGCCT (site CGGATAGCTAG) | 0.885
CGTAAACCTTGGGTTCTAACCTGTTGCGT (site CGTGAACCTAC) | 0.159
CGGATAGCTTGGGTTCTAACCTGTTGCCT (site CGGATCGCTAG) | 0.0282
GAGCGTACTTGGGTTCTAACCTGTTGCAT (site GAGGGTACTAT) | 0.0723
ACCATACCTTGGGTTCTAACCTGTTGCAT (site ACCATACCTAT) | 0.385
GTAAGTCCTTGGGTTCTAACCTGTTGCAG (site GTAAGAACTCT) | 0.0477
GTCAATTCTTGGGTTCTAACCTGTTGCCT (site GACACTTCTAG) | 0.109
AGTATCGCTTGGGTTCTAACCTGTTGCGG (site AGTATCGCTCC) | 1.11
ACTTCCACTTGGGTTCTAACCTGTTGCCT (site GCTTCCACTAG) | 0.0573
TAGAAGGCTTGGGTTCTAACCTGTTGCCT (site TAGAAGGCTAC) | 0.1
TCTACTTCTTGGGTTCTAACCTGTTGCCT (site TCTACATCTAG) | 0.0183
AGTCCACCTTGGGTTCTAACCTGTTGCCT (site AGTCCACCTAG) | 1.53
TAGTCCTCTTGGGTTCTAACCTGTTGCTC (site TAGTCCTCTTA) | 0.118
AAAGGGTCTTGGGTTCTAACCTGTTGCCT (site ATAGGGTCTAG) | 0.689
GAGTGTTCTTGGGTTCTAACCTGTTGCTT (site TGTACGACTCC) | 0.0677
GTTGGAGCTTGGGTTCTAACCTGTTGCCT (site GTTGGAGCTAG) | 2.35
GTCCAGCCTTGGGTTCTAACCTGTTGCAT (site CTCTAGCCTAT) | 0.0778

Sequence | recombinant barcode read abundance (log10)
CTGCTAGCTTGGGTTCTAACCTGTTGCAG (site GACAGGCCTAC) | 0.289
CGGGGCCCTTGGGTTCTAACCTGTTGCTT (site CGGGGCCCTAA) | 2.6
GACTATTCTTGGGTTCTAACCTGTTGCCT (site GACTATTCTAG) | 0.212
AGTAAGACTTGGGTTCTAACCTGTTGCTT (site AGTAAGACTAT) | 0.15
AGCCCTTCTTGGGTTCTAACCTGTTGCTT (site AGCCCTTCTAA) | 0.083
CATAATTCTTGGGTTCTAACCTGTTGCCT (site CATCATTCTAG) | 0
TCTCGGACTTGGGTTCTAACCTGTTGCCT (site TCACGGACTAG) | 0.147
ATAGGGACTTGGGTTCTAACCTGTTGCTA (site ATACGGACTTA) | 0.291
CGATTACCTTGGGTTCTAACCTGTTGCCT (site CGATTAACTAG) | 0.0753
GAGCGCTCTTGGGTTCTAACCTGTTGCTA (site GAGCGCTCTTA) | 0.636
GAAAGGGCTTGGGTTCTAACCTGTTGCCT (site GAAACGGCTAG) | 0.0842
TAGAAGGCTTGGGTTCTAACCTGTTGCTT (site TAGAAGGCTAG) | 0.0656
CTATTTACTTGGGTTCTAACCTGTTGCGG (site TGTCGGCCTAA) | 0.0533
GTTGCGGCTTGGGTTCTAACCTGTTGCCT (site GTTACGGCTAG) | 0.44
GAGGGCCCTTGGGTTCTAACCTGTTGCGG (site GAGGGCCCTCG) | 0.81
ATTACTACTTGGGTTCTAACCTGTTGCCT (site AGTACTACTAG) | 0.343
CAGTCCTCTTGGGTTCTAACCTGTTGCTG (site CAGTCCTCTCA) | 2.23
TAGCATGCTTGGGTTCTAACCTGTTGCAC (site TAGCATGCTTT) | 0.306
TCACTCTCTTGGGTTCTAACCTGTTGCCT (site TTACTCTCTAG) | 0.062
ACCGAGACTTGGGTTCTAACCTGTTGCCT (site ACCGTGACTAG) | 0.0449
TTCAGTCCTTGGGTTCTAACCTGTTGCAT (site TTAAGTCCTAG) | 0
TACTAAGCTTGGGTTCTAACCTGTTGCGT (site TACTAAGCTAT) | 0.149

Sequence | recombinant barcode read abundance (log10)
GCGTCCTCTTGGGTTCTAACCTGTTGCTT (site TACCGTCCTCC) | 0.0776
GTCCTACCTTGGGTTCTAACCTGTTGCCT (site GTCATACCTAG) | 0.0144
AAACGGTCTTGGGTTCTAACCTGTTGCTA (site AAACGGTCTTA) | 1.53
TCGAGGCCTTGGGTTCTAACCTGTTGCGG (site TAGAGCCCTCC) | 0.724
ACTAGGTCTTGGGTTCTAACCTGTTGCTA (site ACTAGGTCTTA) | 1.04
CTACAGACTTGGGTTCTAACCTGTTGCGA (site CTACAGACTGC) | 0.0716
CTACAGACTTGGGTTCTAACCTGTTGCGT (site CTACAGACTAC) | 1.81
TCCCGATCTTGGGTTCTAACCTGTTGCCT (site TCCCGAACTAG) | 0.0997
GTCGCCACTTGGGTTCTAACCTGTTGCCT (site GTAGCCACTAG) | 0.239
GTGCCCGCTTGGGTTCTAACCTGTTGCGG (site GTGCCCGCTCC) | 1.11
AGGCGCCCTTGGGTTCTAACCTGTTGCAT (site AGGCGCCCTCT) | 0.041
ACAAGTCCTTGGGTTCTAACCTGTTGCGG (site ATAAGTCCTTC) | 0.0466
GAGGCTCCTTGGGTTCTAACCTGTTGCCA (site GAGGCTCCTTG) | 0.365
GTTTCCTCTTGGGTTCTAACCTGTTGCCG (site GGATCCTCTCG) | 0.251
CCAATGTCTTGGGTTCTAACCTGTTGCGT (site CCAATGTCTAC) | 1.03
GTGTATCCTTGGGTTCTAACCTGTTGCAT (site GTGTTTCCTAT) | 0.0918
GAGGCGGCTTGGGTTCTAACCTGTTGCTT (site GAGACGGCTAA) | 0.162
AAGAGCACTTGGGTTCTAACCTGTTGCCT (site CAGAGCACTAG) | 0.0257
GTCTAAGCTTGGGTTCTAACCTGTTGCCT (site GTCTAAGCTAG) | 0.171
CATTCACCTTGGGTTCTAACCTGTTGCCT (site TATTCACCTAG) | 0.111
